Data as given in patent US20060293223A1 (Eli Lilly and Company Patent Division, priority 2003, published 2006).
Positions of bridges follow the written chain, without caps; N, C: chain ends. Non-standard residues stand in square brackets, D forms with d. No end group written: not given here. NMeY = CN[C@@H](Cc1ccc(O)cc1)C(=O)O; hCys = N[C@@H](CCS)C(=O)O

Tested on: MC1/MC4
Settings: ratio MC1/MC4
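Note: ratio of EC50 values obtained at MC1 versus MC4 receptors, with MC1 potency measured by luciferase reporter activity in stably transfected cells expressing human MC1.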

Substance	MC1/MC4 selectivity
Ac-cyclo[hCys-His-(β-cyclohexyl-D-Ala)-Arg-Trp-Cys]-NH2 [Compound 167]	3.36
Ac-Arg-cyclo[Cys-Glu-His-(4-Cl-D-Phe)-Arg-Trp-Cys]-NH2 [Compound 50]	36.10
YRCGH[dF]RWC-NH2 (disulfide 3-9) [Compound 11]	11.00
N-(2-naphthalenesulfonylamino-4-oxo-butyryl)-D-Arg-cyclo[Cys-Glu-His-D-Phe-Arg-Trp-Cys]-NH2 [Compound 65]	2.70
Ac-nLeu-cyclo[Cys-Glu-His-D-Phe-Arg-Trp-Cys]-NH2 [Compound 60]	29.95
[NMeY]RCMH[dF]RWC-NH2 (disulfide 3-9) [Compound 17]	10.42
Ac-Tyr-Arg-cyclo[Cys-Glu-(5-Me-D-His)-D-Phe-Arg-Trp-Cys]-NH2 [Compound 98]	7.43
cyclo[Cys-His-(4-Cl-D-Phe)-Arg-Trp-hCys]-NH2 [Compound 182]	185.74
Ac-Tyr-Arg-cyclo[Cys-Glu-(β-(thien-2-yl)-Ala)-D-Phe-Arg-Trp-Cys]-NH2 [Compound 111]	7.67
Ac-diaminopropionyl-cyclo[Cys-Glu-His-D-Phe-Arg-Trp-Cys]-NH2 [Compound 43]	11.00
Ac-CKH[dF]RWC-NH2 (disulfide 1-7) [Compound 16]	2.94
RCH[dF]RW[hCys]-NH2 (disulfide 2-7) [Compound 186]	11.44
phenylsulfonyl-Gly-cyclo[hCys-His-D-Phe-Arg-Trp-Cys]-NH2 [Compound 161]	2.18
R[hCys]H[dF]RWC-NH2 (disulfide 2-7) [Compound 153]	41.81
N-cyclopropanecarbonyl-cyclo[hCys-His-D-Phe-Arg-Trp-Cys]-NH2 [Compound 141]	83.00
Ac-Tyr-Arg-cyclo[Cys-Glu-(1-benzyl-D-His)-D-Phe-Arg-Trp-Cys]-NH2 [Compound 100]	1.67
Ac-YRCSH[dF]RWC-NH2 (disulfide 3-9) [Compound 21]	10.27
cyclo[Cys-His-(4-F-D-Phe)-Arg-Trp-hCys]-NH2 [Compound 181]	45.25
Tyr-Arg-cyclo[Cys-Glu-His-D-Phe-Arg-Trp-Cys]-NH—(CH2)6—NH2 [Compound 70]	2.00
Ac-nLeu-cyclo[Cys-Glu-His-D-Phe-Arg-Trp-Cys]-Ser-Pro-NH2 [Compound 61]	1.70
Ac-Tyr-Arg-cyclo[Cys-Glu-(1-Me-His)-(4-F-D-Phe)-Arg-Trp-Cys]-NH2 [Compound 84]	150.60
N-glutaryl-Tyr-Arg-cyclo[Cys-Glu-His-D-Phe-Arg-Trp-Cys]-NH2 [Compound 75]	6.00
Ac-Tyr-Arg-cyclo[Cys-Glu-His-D-Phe-Arg-Trp-Cys]-NH2 [Compound 72]	22.31
Ac-hArg-cyclo[Cys-Glu-His-D-Phe-Arg-Trp-Cys]-NH2 [Compound 54]	20.85

Substance	MC1/MC4 selectivity
Arg-cyclo[Cys-His-(4-Cl-D-Phe)-Arg-Trp-hCys]-NH2 [Compound 188]	29.56
YR[hCys]H[dF]RWC-NH2 (disulfide 3-8) [Compound 162]	30.07
Arg-cyclo[hCys-(1-Me-His)-D-Phe-Arg-Trp-Cys]-NH2 [Compound 156]	158.41
Ac-Tyr-Arg-cyclo[Cys-Glu-(β-(2-furyl)-Ala)-D-Phe-Arg-Trp-Cys]-NH2 [Compound 110]	4.27
Ac-Orn-cyclo[Cys-Glu-His-D-Phe-Arg-Trp-Cys]-NH2 [Compound 62]	46.91
5-guanidinovaleryl-cyclo[Cys-Glu-His-D-Phe-Arg-Trp-Cys]-NH2 [Compound 42]	44.63
Ac-Tyr-D-Arg-cyclo[Cys-Glu-His-D-Phe-Arg-Trp-Cys]-NH2 [Compound 79]	21.79
Ac-Tyr-Arg-cyclo[hCys-Glu-His-D-Phe-Arg-Trp-hCys]-NH2 [Compound 197]	1.00
Ac-Tyr-(1-β-hArg)-cyclo[Cys-Glu-His-D-Phe-Arg-Trp-Cys]-NH2 [Compound 127]	20.25
Ac-cyclo[Cys-Glu-His-(4-F-D-Phe)-Arg-Trp-Cys]-NH2 [Compound 31]	57.02
Ac-Cit-cyclo[Cys-Glu-His-D-Phe-Arg-Trp-Cys]-NH2 [Compound 55]	28.81
N-(2-naphthalenesulfonyl)-cyclo[hCys-His-D-Phe-Arg-Trp-Cys]-NH2 [Compound 151]	14.00
5-guanidinovaleryl-cyclo[hCys-His-D-Phe-Arg-Trp-Cys]-NH2 [Compound 149]	51.85
Arg-cyclo[hCys-(1-Me-D-His)-D-Phe-Arg-Trp-Cys]-NH2 [Compound 157]	17.60
Ac-Arg-cyclo[Cys-Glu-His-D-Phe-Arg-Trp-Cys]-OH [Compound 49]	35.35
Ac-YR[hCys]H[dF]RW[hCys]-NH2 (disulfide 3-8) [Compound 196]	4.98
Ac-Tyr-Arg-cyclo[Cys-Glu-(2-pyrazine-Ala)-D-Phe-Arg-Trp-Cys]-NH2 [Compound 105]	24.04
Ac-Tyr-Arg-cyclo[Cys-Glu-(1-Me-D-His)-(4-F-D-Phe)-Arg-Trp-Cys]-NH2 [Compound 85]	2.66
Ac-YR[hCys]H[dF]RWC-NH2 (disulfide 3-8) [Compound 164]	7.79
4-phenylbutyryl-cyclo[hCys-His-D-Phe-Arg-Trp-penicillamine]-NH2 [Compound 174]	4.98
N-succinyl-Tyr-Arg-cyclo[Cys-Glu-His-D-Phe-Arg-Trp-Cys]-NH2 [Compound 74]	12.00
Ac-Arg-cyclo[Cys-His-(4-F-D-Phe)-Arg-Trp-hCys]-NH2 [Compound 190]	367.10
Ac-YRCPH[dF]RWC-NH2 (disulfide 3-9) [Compound 20]	4.81
